Where “and” joins values, the source holds several entries; their conditions need not be identical. Equal entries are not always repeated. Structures can show the parent of a compound that is named as a salt. Where two headings read alike, the source gives them in different places.
What was measured:
wildtype Wnt pathway = test: HEK293 TOP reporter assay, wildtype Wnt pathway stimulated with Wnt-3a; type: cell-based, human
Procedure: (§1) Measurement of luciferase expression was done as described for the constitutive active Wnt assay.
In order to discover and characterize small molecules which inhibit the wildtype Wnt pathway, a cellular reporter assay was employed. […] Stable transfectants were generated by selection with 300 μg/ml Hygromycin.

[1] = system: HCT116 FOP control reporter cell line; test: HCT116 FOPFlash control reporter assay (FOP control vector, non-functional TCF elements); type: cell-based; settings: Homo sapiens, HCT-116, 36 h, HCT116 FOP control reporter cells, 36 hours incubation, luciferase expression
From the text: (§2) In a parallel approach, HCT116 cells were cotransfected with the FOP control vector and pcDNA3. The FOP vector is identical to the TOP construct, but it contains instead of functional TCF elements a randomized, non-functional sequence. For this transfection a stable transfected cell line was generated as well.

[2] = system: constitutive active colorectal cancer cell (CRC) Wnt pathway; test: HCT116 TOPFlash cellular reporter assay (Super TopFlash luciferase), constitutive active Wnt pathway; type: cell-based; settings: for IC50: Homo sapiens, HCT-116, 36 h, HCT116 TOP reporter cells, 36 hours incubation, luciferase expression
Procedure: In order to discover and characterize small molecules which inhibit the constitutive active colorectal cancer cell (CRC) Wnt pathway, a cellular reporter assay was employed. […] Stable transfectants were generated by cotransfection with pcDNA3 and selection of stable transfected cells with 1 mg/ml G418.

[3] = system: HEK293 FOP control reporter cell line; test: HEK293 FOP control reporter assay; type: cell-based, human; settings: Homo sapiens, HEK293, 16 h; read-out: HEK FOP IC50
Procedure: as §1
as §2, with “HEK293” for “HCT116”, “well, based on selection with Geneticin (1 mg/ml).” for “well.”

[4] = Solubility in buffer / aqueous media; type: physicochemical; settings: pH 6.5, aqueous buffer; buffer at pH6.5
From the text: Some of the compounds of general formula (I) show low solubility in aqueous media and organic solvents. This can affect the possibility to assess the activity of such compounds with the described assays. […] Therefore, the high IC50 value of the compound might be a result of the low solubility.

[5] = Homo sapiens, HEK293, 16 h; read-out: HEK TOP OncoFlash IC50

Compound | IC50 (wildtype Wnt pathway; [5]) [µM] | IC50 [1] [µM] | IC50 [2] [µM] | IC50 [3] [µM] | IC50 (wildtype Wnt pathway; Homo sapiens, HEK293, 16 h, read-out: HEK TOP OncoFlash IC50) [µM] | solubility [4] | IC50 value in the HCT116 TOPFlash assay (in words) ([2]; might be a result of the low solubility)
CN1CCN(CC(=O)Nc2cc(C(=O)Nc3nnc(-c4ccccc4)s3)ccc2OC(F)F)CC1 [Example 40, 4-(difluoromethoxy)-3-{[(4-methylpiperazin-1-yl)acetyl]amino}-N-(5-phenyl-1,3,4-thiadiazol-2-yl)benzamide] | 0.53 | ≥ 50 | 0.0524 | ≥ 50 | – | – | –
CS(=O)(=O)Cc1ccc(C(=O)Nc2nnc(-c3ccccc3)s2)cc1NC(=O)C1(N2CCOCC2)CC1 [Example 47, 4-[(methylsulfonyl)methyl]-3-({[1-(morpholin-4-yl)cyclopropyl]carbonyl}amino)-N-(5-phenyl-1,3,4-thiadiazol-2-yl)benzamide] | 0.09 | ≥ 50 | 0.0398 | ≥ 50 | – | – | –
O=C(Nc1nnc(-c2ccccc2)s1)c1ccc(OC2CC2)c(NC(=O)C2(N3CCOCC3)CC2)c1 [Example 159, 4-(cyclopropyloxy)-3-({[1-(morpholin-4-yl)cyclopropyl]carbonyl}amino)-N-(5-phenyl-1,3,4-thiadiazol-2-yl)benzamide] | 0.054 | ≥ 50 | 0.0414 | ≥ 50 | – | – | –
O=C(CN1CCOCC1)Nc1cc(C(=O)Nc2ccc(-c3ccccc3)nc2)ccc1OC(F)(F)F [Example 15, 3-[(morpholin-4-ylacetyl)amino]-N-(6-phenylpyridin-3-yl)-4-(trifluoromethoxy)benzamide] | 0.048 | ≥ 50 | 0.137 | ≥ 50 | – | – | –
COCc1ccc(C(=O)Nc2nnc(-c3ccccc3)s2)cc1NC(=O)C1(N2CCN(C)CC2)CC1 [Example 45, 4-(methoxymethyl)-3-({[1-(4-methylpiperazin-1-yl)cyclopropyl]carbonyl}amino)-N-(5-phenyl-1,3,4-thiadiazol-2-yl)benzamide hydrochloride (1:1)] | – | 26.5 | 0.198 | ≥ 50 | 0.19 | – | –
COc1ccc(C(=O)Nc2ccc(-c3ccccc3)nc2)cc1NC(=O)C1(N2CCOCC2)CC1 [Example 81, 4-methoxy-3-({[1-(morpholin-4-yl)cyclopropyl]carbonyl}amino)-N-(6-phenylpyridin-3-yl)benzamide] | 0.015 | ≥ 50 | 0.0231 | ≥ 50 | – | – | –
COc1ccc(C(=O)Nc2ccc(-c3ccccc3F)nc2)cc1NC(=O)CN1CCOCC1 [Example 1, N-[6-(2-fluorophenyl)pyridin-3-yl]-4-methoxy-3-[(morpholin-4-ylacetyl)amino]benzamide] | 3.3 | ≥ 50 | 1.14 | ≥ 50 | – | – | –
COc1ccc(C(=O)Nc2nnc(-c3ccccc3)s2)cc1NC(=O)CN1CCOCC1 [4-methoxy-3-[(morpholin-4-ylacetyl)amino]-N-(5-phenyl-1,3,4-thiadiazol-2-yl)benzamide] | – | – | – | – | – | < 0.1 µg/mL and < 0.22 µM | higher than expected
O=C(CN1CCOCC1)Nc1cc(NC(=O)c2ccc(-c3ccccc3F)nc2)ccc1OC(F)(F)F [Example 30, 6-(2-fluorophenyl)-N-{3-[(morpholin-4-ylacetyl)amino]-4-(trifluoromethoxy)phenyl}nicotinamide] | 1.4 | ≥ 50 | 0.0901 | ≥ 50 | – | – | –
O=C(CN1CCOCC1)Nc1cc(C(=O)Nc2ccc(-c3ccccc3F)nc2)ccc1OC1CC1 [Example 133, 4-(cyclopropyloxy)-N-[6-(2-fluorophenyl)pyridin-3-yl]-3-[(morpholin-4-ylacetyl)amino]benzamide] | 0.13 | ≥ 50 | 0.0546 | ≥ 50 | – | – | –

From patent publication US10130633B2, “Compounds” (BAYER PHARMA AKTIENGESELLSCHAFT, priority 2013, dated 2018)
